Entries after “also recorded” stand apart in the source; their conditions may differ. Square brackets hold non-standard residues; d marks the D form. Ends that are not written are not given here. fluorescein = fluorescein, N-terminal label; Lys(Me3) = C[N+](C)(C)CCCC[C@H](N)C(=O)O; Lys(Me2) = CN(C)CCCC[C@H](N)C(=O)O
Key:
[1] = target: T1, PWWP domain of human HDGF2 (residues 1–93) (Homo sapiens, UniProt Q7Z4V5); test: Fluorescence polarization binding of histone peptides to HDGF2 PWWP domain; conditions: N-terminally fluorescein-labeled peptide 40 nM, PWWP domain titrated, 20 mM PIPES pH 6.5, 50 mM NaCl, 0.01% Tween-20, Very weak = binding too weak to be fitted reliably
T1 construct: HDGF2 (residues 1–93); His-tag (cleaved yes); made in house; host or cells: Escherichia coli BL21 (DE3)-V2R-pRARE2
Description: (§1) DNA fragment encoding the PWWP domain of human BRPF1 (residues 1085–1213), BRPF2 (residues 925–1049), BRPF3 (residues 1056–1195), HDGF2 (residues 1–93), DNMT3A (residues 278–427), DNMT3B (residues 206–355), MUM1 (residues 406–539) WHSC1 (residues 208–368) and WHSC1L1 (residues 247–402) were amplified by PCR and sub-cloned into pET28-MHL vector (Genbank accession number: EF456735) and transformed into Escherichia coli BL21 (DE3)-V2R-pRARE2. The cells were grown in Terrific Broth and the protein was over-expressed by addition of 1 mM isopropyl-1-thio-D-galactopyranoside (IPTG) and incubated overnight at 15°C. Harvested cells were resuspended in 50 mM HEPES, pH 7.4, supplemented with 500 mM NaCl, 2 mM β-mercaptoethanol, 5% glycerol, 0.1% CHAPS. The cells were lysed by passing through a microfluidizer (Microfluidics Corporation) at 20,000 psi. After clarification of the crude extract by high-speed centrifugation, the lysate was loaded onto a 5 ml HiTrap chelating column (GE Healthcare), charged with Ni^2+. The column was washed with 10 column volumes of 20 mM HEPES buffer, pH 7.4, containing 500 mM NaCl, 50 mM imidazole and 5% glycerol, the protein was eluted with 20 mM HEPES buffer, pH 7.4, 500 mM NaCl, 250 mM imidazole, 5% glycerol. The protein was dialyzed against buffer containing 20 mM HEPES, pH 7.4, 500 mM NaCl and 5% glyceral. TEV protease was added to combined fractions containing target proteins to remove the His-tag. All the proteins except DNMT3A were further purified to homogeneity by ion-exchange chromatography on Source 30S column (10×10) (GE Healthcare), equilibrated with 20 mM PIPES buffer, pH 6.5, and eluted with linear gradient of NaCl up to 500 mM concentration (20CV). For DNMT3A, Source 30Q column was used for ion exchange chromatography. The ^15N-labeled proteins for NMR titration were purified in the same protocols as native ones except that bacteria were grew in M9 minimal medium containing 1 g/L ^15(NH4)2SO4 as the sole nitrogen source. The labeled proteins were concentrated to 0.15–0.3 mM for NMR titration.
Fluorescence polarization assays were performed in 384-well plates, using the Synergy 2 microplate reader from BioTek as described in [43]. All the peptides were synthesized and purified by Tufts University Core Services (Boston, MA, U.S.A.), with the N-terminus labeled with fluorescein. Binding assays were performed in a 10 µl volume at a constant labeled peptide concentration (40 nM), by titrating the PWWP domains (at concentrations ranging from low to high micromolar) into 20 mM PIPES buffer (pH 6.5), containing 50 mM NaCl, 0.01% Tween-20. The data points were fitted to ligand binding function using Sigma Plot software to determine the K d values.

[2] = target: T2, PWWP domain of human BRPF1 (residues 1085–1213) (Homo sapiens, UniProt P55201); test: Fluorescence polarization binding of histone peptides to BRPF1 PWWP domain; conditions: N-terminally fluorescein-labeled peptide 40 nM, PWWP domain titrated, 20 mM PIPES pH 6.5, 50 mM NaCl, 0.01% Tween-20, Very weak = binding too weak to be fitted reliably
T2 construct: PWWP domain of human BRPF1 (residues 1085–1213); His-tag (cleaved yes); made in house; host or cells: Escherichia coli BL21 (DE3)-V2R-pRARE2
T2 sequence (P55201 1085-1213): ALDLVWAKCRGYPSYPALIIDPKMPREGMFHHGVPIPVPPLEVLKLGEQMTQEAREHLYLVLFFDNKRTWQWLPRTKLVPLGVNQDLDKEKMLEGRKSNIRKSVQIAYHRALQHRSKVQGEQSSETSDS
Description: as §1, with “TEV protease was added to combined fractions containing target proteins to remove the His-tag. All the proteins except DNMT3A were further purified to homogeneity by ion-exchange chromatography on Source 30S column (10×10) (GE Healthcare), equilibrated with 20 mM PIPES buffer, pH 6.5, and eluted with linear gradient of NaCl up to 500 mM concentration (20CV). For DNMT3A, Source 30Q column was used for ion exchange chromatography. The ^15N-labeled proteins for NMR titration were purified in the same protocols as native ones except that bacteria were grew in M9 minimal medium containing 1 g/L ^15(NH4)2SO4 as the sole nitrogen source. The labeled proteins were concentrated to 0.15–0.3 mM for NMR titration.” left out

[3] = target: T3, N-terminal PWWP domain of human WHSC1L1 (residues 247–402) (Homo sapiens, UniProt Q9BZ95); test: Fluorescence polarization binding of histone peptides to WHSC1L1 N-terminal PWWP domain; conditions: N-terminal PWWP domain only, N-terminally fluorescein-labeled peptide 40 nM, PWWP domain titrated, 20 mM PIPES pH 6.5, 50 mM NaCl, 0.01% Tween-20, Very weak = binding too weak to be fitted reliably
T3 construct: WHSC1L1 (residues 247–402); His-tag (cleaved yes); made in house; host or cells: Escherichia coli BL21 (DE3)-V2R-pRARE2
T3 sequence (Q9BZ95 247-402): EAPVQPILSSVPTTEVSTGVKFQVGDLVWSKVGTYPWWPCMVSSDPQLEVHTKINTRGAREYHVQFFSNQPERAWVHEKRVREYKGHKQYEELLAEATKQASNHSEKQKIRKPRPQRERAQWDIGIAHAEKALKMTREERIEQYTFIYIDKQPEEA
Description: (§2) DNA fragment encoding the PWWP domain of human BRPF1 (residues 1085–1213), BRPF2 (residues 925–1049), BRPF3 (residues 1056–1195), HDGF2 (residues 1–93), DNMT3A (residues 278–427), DNMT3B (residues 206–355), MUM1 (residues 406–539) WHSC1 (residues 208–368) and WHSC1L1 (residues 247–402) were amplified by PCR and sub-cloned into pET28-MHL vector (Genbank accession number: EF456735) and transformed into Escherichia coli BL21 (DE3)-V2R-pRARE2. The cells were grown in Terrific Broth and the protein was over-expressed by addition of 1 mM isopropyl-1-thio-D-galactopyranoside (IPTG) and incubated overnight at 15°C. Harvested cells were resuspended in 50 mM HEPES, pH 7.4, supplemented with 500 mM NaCl, 2 mM β-mercaptoethanol, 5% glycerol, 0.1% CHAPS. The cells were lysed by passing through a microfluidizer (Microfluidics Corporation) at 20,000 psi. After clarification of the crude extract by high-speed centrifugation, the lysate was loaded onto a 5 ml HiTrap chelating column (GE Healthcare), charged with Ni^2+. The column was washed with 10 column volumes of 20 mM HEPES buffer, pH 7.4, containing 500 mM NaCl, 50 mM imidazole and 5% glycerol, the protein was eluted with 20 mM HEPES buffer, pH 7.4, 500 mM NaCl, 250 mM imidazole, 5% glycerol. […]
Fluorescence polarization assays were performed in 384-well plates, using the Synergy 2 microplate reader from BioTek as described in [43]. […]

[4] = target: T4, PWWP domain of human BRPF2 (residues 925–1049) (Homo sapiens, UniProt O95696); test: Fluorescence polarization binding of histone peptides to BRPF2 PWWP domain; conditions: N-terminally fluorescein-labeled peptide 40 nM, PWWP domain titrated, 20 mM PIPES pH 6.5, 50 mM NaCl, 0.01% Tween-20, Very weak = binding too weak to be fitted reliably
T4 construct: BRPF2 (residues 925–1049); His-tag (cleaved yes); made in house; host or cells: Escherichia coli BL21 (DE3)-V2R-pRARE2
T4 sequence (O95696 925-1049): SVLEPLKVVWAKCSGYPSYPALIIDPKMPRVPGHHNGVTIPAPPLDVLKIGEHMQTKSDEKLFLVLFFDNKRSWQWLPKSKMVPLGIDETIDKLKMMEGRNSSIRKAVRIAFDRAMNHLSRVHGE
Description: as §2, with “glycerol. The protein was dialyzed against buffer containing 20 mM HEPES, pH 7.4, 500 mM NaCl and 5% glyceral.” for “glycerol.”

[5] = target: T5, PWWP domain of human MUM1 (melanoma associated antigen (mutated) 1), residues 406-539 (human, UniProt Q2TAK8 406-539); test: fluorescence polarisation; 384-well plates, 10 µl; N-terminal fluorescein peptide constant at 40 nM, PWWP domain titrated (low to high micromolar); 20 mM PIPES pH 6.5, 50 mM NaCl, 0.01% Tween-20; conditions: both partners purified
T5 construct: PWWP domain of human MUM1, residues 406-539; Cloned into pET28-MHL (vector GenBank EF456735); source: E. coli BL21 (DE3)-V2R-pRARE2, purified (Ni2+ chelating column, TEV cleavage, Source 30S ion exchange)

[6] = target: T6, PWWP domain of human HDGF2 (Hepatoma-derived growth factor 2), residues 1-93 (human, UniProt Q7Z4V5 1-93); test: as above; conditions: both partners purified
T6 construct: PWWP domain of human HDGF2, residues 1-93; Cloned into pET28-MHL (vector GenBank EF456735); also called HGDF2; source: E. coli BL21 (DE3)-V2R-pRARE2, purified (Ni2+ chelating column, TEV cleavage, Source 30S ion exchange)
T6 sequence (Q7Z4V5 1-93): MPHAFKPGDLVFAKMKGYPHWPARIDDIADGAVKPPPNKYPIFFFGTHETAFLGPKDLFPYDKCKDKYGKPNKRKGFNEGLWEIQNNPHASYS

T1 sequence (Q7Z4V5 1-93): as above
T5 sequence (Q2TAK8 406-539, stated change not applied): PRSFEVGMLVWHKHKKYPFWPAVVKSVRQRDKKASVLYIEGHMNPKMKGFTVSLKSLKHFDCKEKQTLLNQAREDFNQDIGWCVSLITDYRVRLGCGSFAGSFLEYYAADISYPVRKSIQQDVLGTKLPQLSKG

## AKRHRK(me)2VLRDN [Peptide H4K20me2, histone H4 peptide dimethylated at K20; N-terminus fluorescein-labeled in FP assay]
[1]
  HDGF2 Kd(mM): Very weak
[2]
  BRPF1 Kd(mM): Very weak

## CC(C)[C@H](NC(=O)CNC(=O)CNC(=O)[C@@H](NC(=O)[C@H](C)NC(=O)[C@@H]1CCCN1)[C@@H](C)O)C(=O)N[C@@H](CCCC[N+](C)(C)C)C(=O)N[C@@H](CCCCN)C(=O)N1CCC[C@H]1C(=O)N[C@@H](Cc1c[nH]cn1)C(=O)N[C@@H](CCCNC(=N)N)C(=O)N[C@@H](Cc1ccc(O)cc1)C(=O)O [Peptide H3K36me3]
[1]
  HDGF2 Kd(mM): weakly; also recorded: Very weak
[3]
  WHSC1L1_N Kd (mM): Very weak

## AKRHRK(me)3VLRDN [Peptide H4K20me3, histone H4 peptide trimethylated at K20; N-terminus fluorescein-labeled in FP assay]
[1]
  HDGF2 Kd(mM): weakly; also recorded: Very weak
[2]
  BRPF1 Kd(mM): Very weak

## CC(C)[C@H](NC(=O)CNC(=O)CNC(=O)[C@@H](NC(=O)[C@H](C)NC(=O)[C@@H]1CCCN1)[C@@H](C)O)C(=O)N[C@@H](CCCCN(C)C)C(=O)N[C@@H](CCCCN)C(=O)N1CCC[C@H]1C(=O)N[C@@H](Cc1c[nH]cn1)C(=O)N[C@@H](CCCNC(=N)N)C(=O)N[C@@H](Cc1ccc(O)cc1)C(=O)O [Peptide H3K36me2]
[4]
  BRPF2 Kd(mM): Very weak
[3]
  WHSC1L1_N Kd (mM): Very weak

## CC[C@H](C)[C@H](NC(=O)[C@@H](N)CCC(=O)O)C(=O)N[C@@H](C)C(=O)N[C@@H](CCC(N)=O)C(=O)N[C@@H](CC(=O)O)C(=O)N[C@@H](Cc1ccccc1)C(=O)N[C@@H](CCCCN(C)C)C(=O)N[C@H](C(=O)N[C@@H](CC(=O)O)C(=O)N[C@@H](CC(C)C)C(=O)N[C@@H](CCCNC(=N)N)C(=O)N[C@@H](Cc1ccc(O)cc1)C(=O)O)[C@@H](C)O [Peptide H3K79me2]
[1]
  HDGF2 Kd(mM): Very weak

## CC[C@H](C)[C@H](NC(=O)[C@@H](N)CCC(=O)O)C(=O)N[C@@H](C)C(=O)N[C@@H](CCC(N)=O)C(=O)N[C@@H](CC(=O)O)C(=O)N[C@@H](Cc1ccccc1)C(=O)N[C@@H](CCCC[N+](C)(C)C)C(=O)N[C@H](C(=O)N[C@@H](CC(=O)O)C(=O)N[C@@H](CC(C)C)C(=O)N[C@@H](CCCNC(=N)N)C(=O)N[C@@H](Cc1ccc(O)cc1)C(=O)O)[C@@H](C)O [Peptide H3K79me3]
[1]
  HDGF2 Kd(mM): weakly; also recorded: very weak binding affinity

B1: H3K36me3 peptide PATGGVK(me)3KPHRY, N-terminal fluorescein (peptide)
peptide: fluorescein-PATGGV[Lys(Me3)]KPHRY
notes: histone H3, stretch around K36; source: synthetic peptide (Tufts University Core Services)
[5]
  Kd: 100 ± 70 µM

B2: H3K36me2 peptide PATGGVK(me)2KPHRY, N-terminal fluorescein (peptide)
peptide: fluorescein-PATGGV[Lys(Me2)]KPHRY
notes: as for B1
[5]
  Kd: 400 ± 100 µM
[6]
  Kd: 1000 ± 200 µM
